pIC50: −log10 of the molar value.
How the values were obtained:
AGS cells (KRAS G12D) = assay: Cell viability assay (Cell Counting Kit-8, 3-day); type: cell-based, human; conditions: Homo sapiens, 72 h, 72 hrs incubation
Description: (§1) The purpose of this cellular assay was to determine the effects of test compounds on the proliferation of human cancer cell lines NCI-H358 (ATCC-CRL5807) cells, AGS (ATCC-CRL-1739) cells, SW620 (ATCC-CCL-227) over a 3-day treatment period by quantifying the amount of NADPH present at endpoint using Cell Counting Kit-8.
(§2) Cells were seeded at 5,000 cells/well (NCI-H358), 2,000 cells/well (AGS) 2,000 cells/well (SW620) in 96-well assay plates (Corning-3699) and incubated overnight. On the day of the assay, diluted compounds were then added in a final concentration of 0.5% DMSO. After 72 hrs incubation, a tenth of the volume of cell counting kit 8 (Dnjindo-CK04) was added into each well. Read the signal (OD450 minus OD650) using EnVision after 2 hrs incubation. IC50 was determined by fitting a 4-parameter sigmoidal concentration response model.

[1] = system: NCI-H358 cells (KRAS G12C); assay: Cell viability assay (Cell Counting Kit-8, 3-day); type: cell-based, human; conditions: Homo sapiens, NCI-H358, 72 h, NCI-H358, 72 hrs incubation
Description: as §1, §2

SW620 cells (KRAS G12V) = assay: Cell viability assay (Cell Counting Kit-8, 3-day); type: cell-based, human; conditions: Homo sapiens, SW-620; SW620, 72 hrs incubation
Description: as §1, §2

[2] = system: phosphorylation of ERK, KRAS G12C in NCI-H358 cells; assay: pERK inhibition assay; type: cell-based; conditions: Homo sapiens, NCI-H358, 4 h
Description: (§3) This assay is to measure the ability of test compounds in inhibiting the phosphorylation of ERK, the downstream signaling of KRAS G12C in NCI-H358 cells, KRAS G12D in AGS cells, and KRAS G12V in SW620. NCI-H358 (ATCC-CRL5807) cells, AGS (ATCC-CRL-1739) cells, SW620 (ATCC-CCL-227) cells were all grown and maintained using RPMI-1640 medium (Thermo Fisher Scientific) with 10% fetal bovine serum and 1% penicillin/streptomycin. On the day prior to compound addition, cells were plated in tissue culture-treated 96 well plates (Corning-3699) at a density of 30,000 cell/well, 20,000 cell/well, 30,000 cell/well for NCI-H358, AGS and SW620 respectively, and allowed for attachment overnight. Diluted compounds were then added in a final concentration of 0.5% DMSO. After 4 hours of incubation, the medium was removed, 100 μL of 4% formaldehyde was added, and the assay plates were incubated at room temperature for 20 minutes. The plates were then washed once with phosphate buffered saline (PBS), and permeabilized with 100 μL of chilled methanol for 10 minutes. Non-specific antibody binding to the plates was blocked using 50 μL 1X BSA blocking buffer (Thermo-37520, 10-fold dilution by Phosphate-Buffered Saline Tween (PBST) for at least 1 hour at room temperature.
(§4) The amount of phosphor-ERK was determined using an antibody specific for phosphorylated form of ERK. Primary antibody (PERK, CST-4370, Cell Signaling Technology) was diluted 1:300 in blocking buffer, with 50 μL aliquoted to each well, and incubated overnight at 4° C. Cells was washed five times for 5 minutes with PBST. Secondary antibody (HRP-linked anti-rabbit IgG, CST-7074, Cell Signaling Technology) was diluted 1:1000 in blocking buffer, and 50 μL was added to each well and incubated 1-2 hrs at room temperature. Cells was washed […] for 5 minutes with PBST, 100 μL TMB ELISA substrate (abcam-ab171523) were added and gently shake for 20 minutes. 50 μL stop solution (abcam-ab 171529) were added, and then read the signal (OD450) by EnVision.
(§5) IC50 was determined by fitting a 4-parameter sigmoidal concentration response model.

[3] = system: phosphorylation of ERK, KRAS G12D in AGS cells; assay: pERK inhibition assay; type: cell-based; conditions: Homo sapiens, AGS, 4 h
Description: as §3, §4, §5

[4] = system: phosphorylation of ERK, KRAS G12V in SW620; assay: pERK inhibition assay; type: cell-based; conditions: Homo sapiens, SW-620, 4 h, SW620 cells
Description: as §3, §4, §5

Structure (SMILES) | pIC50 (AGS cells (KRAS G12D)) | pIC50 [1] | pIC50 (SW620 cells (KRAS G12V)) | pIC50 [2] | pIC50 [3] | pIC50 [4]
CO[C@@H](C)c1ncc(N2CCN(CC(F)(F)F)CC2)cc1-c1c2c3cc(cc4c3n1CCO4)-c1csc(n1)C[C@H](NC(=O)[C@H]1C[C@@H]1c1ccccc1)C(=O)N1CCC[C@H](N1)C(=O)OCC(C)(C)C2 (atropisomer, axis not shown; (M)) [Example 44, (1S,2S)-N-[(7S,13S)-(20M)-20-[2-[(1S)-1-methoxyethyl]-5-[4-(2,2,2-trifluoroethyl)piperazin-1-yl]-3-pyridyl]-17,17-dimethyl-8,14-dioxo-15,24-dioxa-4-thia-9,21,30,31-tetrazahexacyclo[23.3.1.1^2,5.1^9,13.0^19,27.0^21,26]hentriaconta-1 (29),2,5 (31),19,25,27-hexaen-7-yl]-2-phenyl-cyclopropanecarboxamide] | 7.47 | 7.77 | 8.51 | 8.68 | 8.04 | 8.85
CO[C@@H](C)c1ncc(N2CCN(C)CC2)cc1-c1c2c3cc(cc4c3n1CC(F)(F)C4)-c1csc(n1)C[C@H](NC(=O)[C@H]1C[C@@H]1c1ccccc1)C(=O)N1CCC[C@H](N1)C(=O)OCC(C)(C)C2 (atropisomer, axis not shown; (M)) [Example 78] | 7.51 | 8.01 | 8.64 | 8.70 | 8.00 | 8.96
CO[C@@H](C)c1ncc(N2CCOCC2)cc1-c1c2c3cc(cc4c3n1CCCC4)-c1csc(n1)C[C@H](NC(=O)[C@H]1[C@H](C)[C@@H]1C)C(=O)N1CCC[C@H](N1)C(=O)OCC(C)(C)C2 [Example 126, (1r,2R,3S)-N-[(7S,13S)-(20M)-20-[2-[(1S)-1-methoxyethyl]-5-morpholino-3-pyridyl]-17,17-dimethyl-8,14-dioxo-15-oxa-4-thia-9,21,31,32-tetrazahexacyclo[24.3.1.1^2,5.1^9,13.0^19,28.0^19,28.0^21,27]dotriaconta-1 (29),2,5 (32),19,26 (30),27-hexaen-7-yl]-2,3-dimethyl-cyclopropanecarboxamide] | 6.12 | 7.40 | 8.15 | 8.30 | 7.30 | 8.52
CO[C@@H](C)c1ncc(N2CCN(C)CC2)cc1-c1c2c3cc(cc4c3n1CCC4)-c1csc(n1)C[C@H](NC(=O)[C@@H]1C[C@H]1c1ccncc1)C(=O)N1CCC[C@H](N1)C(=O)OCC(C)(C)C2 [Example 58, (1R,2R)-N-[(7S,13S)-(20M)-20-[2-[(1S)-1-methoxyethyl]-5-(4-methylpiperazin-1-yl)-3-pyridyl]-17,17-dimethyl-8,14-dioxo-15-oxa-4-thia-9,21,30,31-tetrazahexacyclo[23.3.1.1^2,5.1^9,13.0^19,27.0^21,26]hentriaconta-1 (28),2,5 (31),19,25 (29),26-hexaen-7-yl]-2-(4-pyridyl)cyclopropanecarboxamide] | 7.41 | 8.12 | 8.70 | 8.19 | 7.69 | 8.31
CO[C@@H](C)c1ncc(N2CCN(C)CC2)cc1-c1c2c3cc(cc4c3n1CC(F)(F)C4)-c1csc(n1)C[C@H](NC(=O)[C@H]1C[C@@H]1C(F)F)C(=O)N1CCC[C@H](N1)C(=O)OCC(C)(C)C2 (atropisomer, axis not shown; (M)) [Example 31] | 7.66 | 8.51 | > 9.22 | 8.64 | 7.70 | 8.80
CO[C@@H](C)c1ncc(N2CCN(C)CC2)cc1-c1c2c3cc(cc4c3n1CCC4)-c1csc(n1)C[C@H](NC(=O)C1(C)CC1(F)F)C(=O)N1CCC[C@H](N1)C(=O)OCC(C)(C)C2 (stereo partly drawn) [Example 19, 2,2-difluoro-N-[(7S,13S)-(20M)-20-[2-[(1S)-1-methoxyethyl]-5-(4-methylpiperazin-1-yl)-3-pyridyl]-17,17-dimethyl-8,14-dioxo-15-oxa-4-thia-9,21,30,31-tetrazahexacyclo[23.3.1.1^2,5.1^9,13.0^19,27.0^21,26]hentriaconta-1 (28),2,5 (31),19,25 (29),26-hexaen-7-yl]-1-methyl-cyclopropanecarboxamide] | 7.01 | 7.77 | 8.42 | 8.72 | 7.68 | 8.57
CO[C@@H](C)c1ncc(N2CCN(C)CC2)cc1-c1c2c3cc(cc4c3n1CCC4)-c1csc(n1)C[C@H](NC(=O)[C@@H]1C[C@H]1c1ccccc1F)C(=O)N1CCC[C@H](N1)C(=O)OCC(C)(C)C2 [Example 28, (1R,2R)-2-(2-fluorophenyl)-N-[(7S,13S)-(20M)-20-[2-[(1S)-1-methoxyethyl]-5-(4-methylpiperazin-1-yl)-3-pyridyl]-17,17-dimethyl-8,14-dioxo-15-oxa-4-thia-9,21,30,31-tetrazahexacyclo[23.3.1.1^2,5.1^9,13.0^19,27.0^21,26]hentriaconta-1 (28),2,5 (31),19,25 (29),26-hexaen-7-yl]cyclopropanecarboxamide] | 7.65 | 8.15 | 8.82 | 8.92 | 8.03 | 8.89
CO[C@@H](C)c1ncc(N2CCOCC2)cc1-c1c2c3cc(cc4c3n1C(C)(C)CC4)-c1csc(n1)C[C@H](NC(=O)[C@H]1C[C@@H]1C)C(=O)N1CCC[C@H](N1)C(=O)OCC(C)(C)C2 [Example 125, (1S,2S)-N-[(7S,13S)-(20M)-20-[2-[(1S)-1-methoxyethyl]-5-morpholino-3-pyridyl]-17,17,22,22-tetramethyl-8,14-dioxo-15-oxa-4-thia-9,21,30,31-tetrazahexacyclo[23.3.1.1^2,5.1^9,13.0^19,27.0^21,26]hentriaconta-1 (29),2,5 (31),19,25,27-hexaen-7-yl]-2-methyl-cyclopropanecarboxamide] | 5.33 | 5.96 | 6.68 | 6.52 | 6.32 | 7.08
CO[C@@H](C)c1ncc(N2CCN(C)CC2)cc1-c1c2c3cc(cc4c3n1CCC4)-c1csc(n1)C[C@H](NC(=O)[C@H]1C[C@@H]1c1ncccn1)C(=O)N1CCC[C@H](N1)C(=O)OCC(C)(C)C2 [Example 80, (1S,2S)-N-[(7S,13S)-(20M)-20-[2-[(1S)-1-methoxyethyl]-5-(4-methylpiperazin-1-yl)-3-pyridyl]-17,17-dimethyl-8,14-dioxo-15-oxa-4-thia-9,21,30,31-tetrazahexacyclo[23.3.1.1^2,5.1^9,13.0^19,27.0^21,26]hentriaconta-1 (28),2,5 (31), 19,25 (29),26-hexaen-7-yl]-2-pyrimidin-2-yl-cyclopropanecarboxamide] | – | – | – | 8.29 | 7.32 | 8.38
CO[C@@H](C)c1ncc(N2CCN(CC(F)(F)F)CC2)cc1-c1c2c3cc(cc4c3n1CC(F)(F)C4)-c1csc(n1)C[C@H](NC(=O)[C@H]1C[C@@H]1C)C(=O)N1CCC[C@H](N1)C(=O)OCC(C)(C)C2 (atropisomer, axis not shown; (M)) [Example 67, (1S,2S)-N-[(7S,13S)-23,23-difluoro-(20M)-20-[2-[(1S)-1-methoxyethyl]-5-[4-(2,2,2-trifluoroethyl)piperazin-1-yl]-3-pyridyl]-17,17-dimethyl-8,14-dioxo-15-oxa-4-thia-9,21,30,31-tetrazahexacyclo[23.3.1.1^2,5.1^9,13.0^19,27.0^21,26]hentriaconta-1 (28),2,5 (31),19,25 (29),26-hexaen-7-yl]-2-methyl-cyclopropanecarboxamide] | – | – | – | 8.62 | 7.50 | 8.49

Reference: patent US20240417410A1, “TRICYCLIC COMPOUNDS FOR THE TREATMENT OF CANCER” (Hoffmann-La Roche Inc., priority 2023, published 2024)
